Experimental data published in patent publication US20230257383A1, “COMPOUND SERVING AS BTK INHIBITOR, PREPARATION METHOD THEREFOR, AND USE THEREOF” (CHENGDU HYPERWAY PHARMACEUTICALS CO., LTD., priority 2020, published 2023).

Columns and labels:
DOHH2 cell proliferation = experiment: In vitro cell proliferation inhibitory activity test (CTG), DOHH2; format: cell-based; conditions: Homo sapiens, DOHH-2
Experimental: Test Example 4: In Vitro Cell Proliferation Inhibitory Activity Test
Cells were cultured in 1640 medium, added with 10% inactivated FBS and 1% double antibiotics, and cultured at 37° C. and 5% CO2.
(1) Cells were routinely cultured until the cell density was 80%-90%, and the cells were harvested when their number reached the requirement.
(2) Cells were resuspended with corresponding culture medium, counted, and prepared into cell suspension at appropriate density.
(3) The cell suspension was added to a 96-well plate, 100 μL per well.
(4) Cells were cultured overnight in a 37° C., 5% CO2 incubator.
(1) The compounds to be tested were diluted with DMSO to make a stock solution with a final concentration of 20 mM for later use.
(2) The stock solution was diluted 10 times from 20 mM to 2 mM with DMSO, and then diluted 3 times from 2 mM to 9 concentrations.
(3) The blank control wells were cells plus 0.5% DMSO, as high-reading control wells.
(4) Wells with no cells and only medium were used as low-reading control wells.
4: Cell treatment with compound
(1) 24 h after the cells were plated, the compounds acted alone, and 99 μL of growth medium was added to each well, followed by 1 μL of the compound prepared in step 3. The plate was shaken gently to mix uniformly, and then placed in a 37° C., 5% CO2 incubator.
(2) The cell plate was placed in an incubator for 72 h.
5: Detection by CTG method
(1) The cell plate to be tested was placed at room temperature for 30 min, and 100 μL of medium was discarded from each well.
(2) 100 μL of CTG reagent (CelltiterGlo kit) was added to each well, placed on a fast shaker for 2 min, and stood at room temperature in the dark for 30 min.
(3) The chemiluminescent signal value was read with the Envision instrument.
IC50 was calculated by using GraphPad Prism 8 software. The IC50 (half inhibitory concentration) of the compound was derived using the following nonlinear fitting formula, and the results are shown in the following table:
Y=Bottom+(Top−Bottom)/(1+10^((Log IC50−X)×HillSlope))
X: log value of compound concentration, Y: inhibition rate (% inhibition)
Inhibition rate (% inhibition)=(reading of high-reading control well-reading of compound well)/(reading of high-reading control well-reading of low-reading control well)×100

[1] = system: TMD8 mouse subcutaneous xenograft tumor; experiment: TMD8 pharmacodynamic model test; format: in vivo; conditions: same dose of 20 mg/kg, FIG. 2
Experimental: Test Example 7: TNMD8 Pharmacodynamic Model Test
Human diffuse large B-cell lymphoma TMD8 cells were monolayer-cultured in vitro in RPNHI1640 medium with […], 100 U/mL penicillin and 100 μg/mL streptomycin, in a 37° C., […] incubator. Routine digestion with trypsin-EDTA was performed twice a week for passaging. When the cell density was […] and the number reached the requirement, cells were harvested, counted and inoculated. 0.2 ml (1×10^7 cells) of TMVD8 cells (added with matrigel at a volume ratio of 1:1) were subcutaneously inoculated on the right back of each mouse. The mice were administered in groups when the average tumor volume reached about 137 mm^3. Tumor diameters were measured twice a week with vernier calipers. The tumor volume was calculated by the formula V=0.5 a×b^2, where a and b represent the long and short diameters of the tumor, respectively.

[2] = Liver microsome metabolic stability test (human); format: in vitro ADME; conditions: for microsomal CLint: read-out: CLint (μL/min/mg) Human
Summary of the method: (§1)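 Human or rat liver microsomes (working solution 0.5 mg/mL protein) were pre-incubated with compound at 37 °C. The reaction was started with NADPH regeneration system and quenched with ac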

[3] = Liver microsome metabolic stability test (rat); format: in vitro ADME; conditions: for microsomal CLint: read-out: CLint (μL/min/mg) Rat
Summary of the method: as §1

% Remaining (60 min) Human ([2]; 60 min) | half-life ([2]; liver microsomes, 0.5 mg/mL protein, read-out: T1/2 (min) Human) | % Remaining (60 min) Rat ([3]; 60 min) | half-life ([3]; liver microsomes, 0.5 mg/mL protein, read-out: T1/2 (min) Rat) | SMILES | IC50 (DOHH2 cell proliferation) | inhibitory effect against the tumor compared with Tirabrutinib [1] | microsomal CLint ([2]; liver microsomes) | microsomal CLint ([3]; liver microsomes)
– | – | – | – | Nc1nccn2c(C3CCC(CO)OC3)nc(-c3ccc(C(F)(F)c4ccccc4)cc3)c12 (single isomer, unassigned) [Example 111-P1] | 116 nM | significantly better inhibitory effect against the tumor than Tirabrutinib | – | –
– | – | – | – | Nc1nccn2c(C34CCC(CO)(CC3)OC4)nc(-c3ccc(C(F)(F)c4ccccc4)cc3)c12 [Example 125] | 114 nM | significantly better inhibitory effect against the tumor than Tirabrutinib | 14.6 µL/min/mg | 21.7 µL/min/mg
46.2% | 61.2 min | 49.6% | 60.8 min | Nc1nccn2c(C34CCC(CO)(CC3)OC4)nc(-c3ccc(C(F)(F)c4ccccc4F)cc3)c12 [Example 145] | – | – | 22.7 µL/min/mg | 22.8 µL/min/mg
– | – | – | – | Nc1nccn2c(C34CCC(CO)(CC3)OC4)nc(-c3ccc(C(F)(F)c4cccc(Cl)c4F)cc3)c12 [Example 152] | – | – | 45.9 µL/min/mg | 102 µL/min/mg
– | – | – | – | Nc1nccn2c(C34CCC(CO)(CC3)OC4)nc(-c3ccc(C(F)(F)c4ccccc4Cl)cc3)c12 [Example 155] | – | – | 41.7 µL/min/mg | 62.2 µL/min/mg
– | – | – | – | Cc1cc(Nc2ncnc3ccc(NC4=NC(C)(C)CO4)cc23)ccc1Oc1ccn2ncnc2c1 [Tucatinib, reference compound] | – | – | 43.7 µL/min/mg | 34.9 µL/min/mg
